{
  "source": "patent US10370355B2",
  "about": "“Tetrahydroisoquinoline derivatives” (UCB Biopharma SPRL, priority 2016, dated 2019)",
  "target": "T1, dopamine D1 receptor (Homo sapiens, UniProt P21728)",
  "T1 construct": "host or cells: LMtk (Ltk-) mouse fibroblast cells",
  "T1 sequence (P21728 whole entry)": "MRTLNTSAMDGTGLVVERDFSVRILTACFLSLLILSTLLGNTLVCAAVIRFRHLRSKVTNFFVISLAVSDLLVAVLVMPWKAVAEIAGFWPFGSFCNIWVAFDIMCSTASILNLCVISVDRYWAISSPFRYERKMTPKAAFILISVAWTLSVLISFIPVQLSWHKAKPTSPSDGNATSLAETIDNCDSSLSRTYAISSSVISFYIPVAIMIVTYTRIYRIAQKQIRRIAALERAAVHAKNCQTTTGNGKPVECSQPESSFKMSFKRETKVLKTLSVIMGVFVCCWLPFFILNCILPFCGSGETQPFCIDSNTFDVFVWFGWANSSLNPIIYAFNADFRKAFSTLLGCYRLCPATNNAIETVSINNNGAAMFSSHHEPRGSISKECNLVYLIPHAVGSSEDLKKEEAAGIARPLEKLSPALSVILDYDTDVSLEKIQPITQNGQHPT",
  "test": "cAMP HTRF potentiation assay (presence of EC20 dopamine)",
  "type": "cell-based",
  "conditions": "potentiation of cAMP in presence of EC20 dopamine (1.1 nM); LMtk (Ltk-) mouse fibroblast cells expressing the dopamine D1 receptor",
  "description": "The present assay allows to measure respectively the effects of compounds of the Examples in the absence of dopamine (“activation assay”) and the effects of compounds of the Examples in the presence of dopamine (“potentiation assay”).\nThe potentiation assay measures the ability of compounds to increase the levels of cAMP produced by a low-threshold concentration of dopamine. The concentration of dopamine used ([EC20]) is designed to produce 20% stimulation compared to the maximal response (100%) seen with increasing the concentration of dopamine. To measure this potentiation we incubate increasing concentrations of the compound with the [EC2O] of dopamine and measure the potentiation as increases in cAMP production. The pEC50 of a compound is the −log 10 of the concentration of the compound which produces 50% of the potentiation of the cAMP levels and the Erel is the relative efficacy, defined as the maximal % potentiation produced by the compound compared to the maximal response produced by increasing concentrations of dopamine (Erel of 1=dopamine maximum response).\nCells were cultured at 37° C. in a humidified atmosphere of 5% CO2. Cells were grown in DMEM-F12+GlutaMAX™-I medium (GIBCO®, Invitrogen, Merelbeke, Belgium) containing 10% fetal bovine serum (BioWhittaker®, Lonza, Verviers, Belgium), 400 μg/mL Geneticin (GIBCO®), 100 IU/mL Penicillin and 100 IU/mL Streptomycin (Pen-Strep solution, BioWhittaker®).\nThe measurement of changes in intracellular cyclic adenosinemonophopshpate (cAMP) was determined using the HTRF cAMP dynamic assay kit from CisBio (Codolet, France). Using homogenous time-resolved fluoresence technology, the assay is based on competition between native cAMP produced by cells and cAMP labelled with the dye d2. The tracer binding is determined by an anti-cAMP antibody labeled with cryptate. The effects of the compound alone (agonism) was determined by performing the assay in the absence of dopamine, whilst the effect of the compound as a positive allosteric modulator (PAM) was determined in the presence of an EC20 concentration of dopamine. Cells (20,000 per well) are incubated in 384 plates for 1 hour at room temperature in a final volume of 20 μLHBSS (Lonza, with calcium, magnesium and HEPES buffer 20 mM, pH 7.4) containing: isobutyl methylxanthine (Sigma, 0.1 mM final), varying concentrations of test compound (typically […] to 10^−4.5M) in the presence and absence of dopamine (1.1 nM final). The reaction is then terminated and the cells lysed by adding the d2 detection reagent in lysis buffer (10 microL) and the cryptate reagent in lysis buffer (10 microl) according to manufacturer's instructions. This is then incubated for a further 60 min at room temperature and changes in HTRF fluorescent emission ratio determined according to manufacturer's instructions using an Envision plate reader (Perkin Elmer, Zaventem, Belgium) with laser excitation. All incubations were performed in duplicate and results were compared to a concentration-effect curve to dopamine. (10^−11M to 10^−6M).\nData was analyzed using Excel and PRISM (GraphPad Software) to obtain pEC50 and Erel using the 4-parameter logistic equation (DeLean et al, 1978) where Erel is the fitted maximal response of the test compound minus basal expressed as a percentage relative to that obtained with dopamine which was defined as 100%.",
  "data": [
    {"smiles": "C[C@H]1c2cccc(C(O)(CF)CF)c2CCN1C(=O)Cc1c(Cl)ccc2c1c(Cl)nn2C", "note": "[Example 28, 2-(3,5-dichloro-1-methyl-indazol-4-yl)-1-[(1S)-5-[2-fluoro-1-(fluoromethyl)-1-hydroxy-ethyl]-1-methyl-3,4-dihydro-1H-isoquinolin-2-yl]ethanone]", "values": [
      {"measurement": "EC50", "value": "≤ 31.6", "unit": "nM"}
    ]}
  ]
}
